Measurements as given in PubChem BioAssay AID194 (DTP/NCI, 2004).
Several values for one entry are separate records, joined by “and”; a condition that tells them apart may be missing. Identical values can stand only once. Records with an inconclusive call do not appear.

System: BDF1 mice, B16 melanoma s.c., survival/tumor T/C
Test: NCI In Vivo Anticancer Drug Screen. Data for tumor model B16 Melanoma (subcutaneous) in B6D2F1 (BDF1) mice
Protocol: The antitumor activity of compounds was measured in mice bearing transplantable tumors. Survival or tumor size were measured and the results are expressed as the measurement made in the treated group (T) divided by the measurement made in the vehicle treated control group (C). The tumor model used in this assay is B16 Melanoma (subcutaneous) in B6D2F1 (BDF1) mice

[1] = endpoint: median survival time, dose: 6.25 mg/kg/injection, schedule: Q01DX009 (ip), vehicle: saline with Tween-80, higher = longer survival
[2] = endpoint: median survival time, dose: 12.5 mg/kg/injection, schedule: Q01DX009 (ip), vehicle: saline with Tween-80, higher = longer survival
[3] = endpoint: median survival time, dose: 50.0 mg/kg/injection, schedule: Q01DX009 (ip), vehicle: saline with Tween-80, higher = longer survival
[4] = endpoint: median survival time, dose: 100.0 mg/kg/injection, schedule: Q01DX009 (ip), vehicle: saline with Tween-80, higher = longer survival

SMILES: N/C(=N\Cl)C(Cl)(Cl)Cl
- T/C [1]: 102 % of control
- T/C [2]: 98 % of control
- T/C [3]: 94 % of control

SMILES: Nc1ncnc2c1ncn2C1OC(CO)C(O)C1O (centres undefined)
- T/C (endpoint: median survival time, dose: 60.0 mg/kg/injection, schedule: Q03HX024 (ip), vehicle: saline with Tween-80, higher = longer survival): 115 % of control
- T/C (endpoint: median survival time, dose: 70.0 mg/kg/injection, schedule: Q03HX024 (ip), vehicle: saline with Tween-80, higher = longer survival): 96 % of control
- T/C (endpoint: median survival time, dose: 80.0 mg/kg/injection, schedule: Q03HX024 (ip), vehicle: saline with Tween-80, higher = longer survival): 105 % of control
- T/C (endpoint: median survival time, dose: 160.0 mg/kg/injection, schedule: Q03HX024 (ip), vehicle: saline with Tween-80, higher = longer survival): 115 % of control
- T/C (endpoint: median survival time, dose: 240.0 mg/kg/injection, schedule: Q03HX024 (ip), vehicle: saline with Tween-80, higher = longer survival): 121 % of control

SMILES: N[C@@H](Cc1ccc(N(CCCl)CCCl)cc1)C(=O)O
- T/C (endpoint: median survival time, dose: 1.0 mg/kg/injection, schedule: Q01DX009 (ip), vehicle: saline, higher = longer survival): 93 % of control
- T/C (endpoint: median survival time, dose: 2.0 mg/kg/injection, schedule: Q01DX009 (ip), vehicle: saline, higher = longer survival): 150 % of control
- T/C (endpoint: median survival time, dose: 4.0 mg/kg/injection, schedule: Q01DX009 (ip), vehicle: saline, higher = longer survival): 123 % of control
- T/C (endpoint: median tumor weight (est.), dose: 1.25 mg/kg/injection, schedule: Q01DX009 (ip), vehicle: Klucel (hydroxypropylcellulose) (HPC), higher = larger tumour): 63 % of control
- T/C (endpoint: median tumor weight (est.), dose: 2.5 mg/kg/injection, schedule: Q01DX009 (ip), vehicle: Klucel (hydroxypropylcellulose) (HPC), higher = larger tumour): 44 % of control
- T/C (endpoint: median tumor weight (est.), dose: 5.0 mg/kg/injection, schedule: Q01DX009 (ip), vehicle: Klucel (hydroxypropylcellulose) (HPC), higher = larger tumour): 18 % of control

SMILES: CC(=O)O[C@]1(C(C)=O)CC[C@H]2[C@@H]3C[C@H](C)C4=CC(=O)CC[C@]4(C)[C@H]3CC[C@@]21C
- T/C (endpoint: median survival time, dose: 100.0 mg/kg/injection, schedule: Q01DX009 (ip), vehicle: Klucel (hydroxypropylcellulose) (HPC), higher = longer survival): 111 % of control and 112 % of control
- T/C (endpoint: median survival time, dose: 200.0 mg/kg/injection, schedule: Q01DX009 (ip), vehicle: Klucel (hydroxypropylcellulose) (HPC), higher = longer survival): 86 % of control and 102 % of control
- T/C (endpoint: median survival time, dose: 400.0 mg/kg/injection, schedule: Q01DX009 (ip), vehicle: Klucel (hydroxypropylcellulose) (HPC), higher = longer survival): 96 % of control and 102 % of control
- T/C (endpoint: median survival time, dose: 800.0 mg/kg/injection, schedule: Q01DX009 (ip), vehicle: Klucel (hydroxypropylcellulose) (HPC), higher = longer survival): 104 % of control and 111 % of control

SMILES: CCOC(=O)c1csc(CCNC(=O)c2ccccc2)n1
- T/C (endpoint: median survival time, dose: 6.25 mg/kg/injection, schedule: Q01DX009 (ip), vehicle: water, higher = longer survival): 101 % of control
- T/C (endpoint: median survival time, dose: 12.5 mg/kg/injection, schedule: Q01DX009 (ip), vehicle: water, higher = longer survival): 94 % of control
- T/C (endpoint: median survival time, dose: 25.0 mg/kg/injection, schedule: Q01DX009 (ip), vehicle: water, higher = longer survival): 113 % of control
- T/C (endpoint: median survival time, dose: 50.0 mg/kg/injection, schedule: Q01DX009 (ip), vehicle: water, higher = longer survival): 87 % of control
- T/C (endpoint: median survival time, dose: 100.0 mg/kg/injection, schedule: Q01DX009 (ip), vehicle: water, higher = longer survival): 98 % of control

SMILES: CC1(C)N=C(N)N=C(N)N1c1ccc(CCCCc2ccc(S(=O)(=O)F)cc2Cl)c(Cl)c1
- T/C (endpoint: median survival time, dose: 6.25 mg/kg/injection, schedule: Q01DX009 (ip), vehicle: saline, higher = longer survival): 119 % of control
- T/C (endpoint: median survival time, dose: 12.5 mg/kg/injection, schedule: Q01DX009 (ip), vehicle: saline, higher = longer survival): 90 % of control
- T/C (endpoint: median survival time, dose: 18.75 mg/kg/injection, schedule: Q04DX003 (ip), vehicle: saline, higher = longer survival): 88 % of control
- T/C (endpoint: median survival time, dose: 25.0 mg/kg/injection, schedule: Q01DX009 (ip), vehicle: saline, higher = longer survival): 111 % of control
- T/C (endpoint: median survival time, dose: 37.5 mg/kg/injection, schedule: Q04DX003 (ip), vehicle: saline, higher = longer survival): 105 % of control
- T/C (endpoint: median survival time, dose: 75.0 mg/kg/injection, schedule: Q04DX003 (ip), vehicle: saline, higher = longer survival): 110 % of control
- T/C (endpoint: median survival time, dose: 150.0 mg/kg/injection, schedule: Q04DX003 (ip), vehicle: saline, higher = longer survival): 119 % of control

SMILES: CCSC(=O)N1c2ccc(OC)cc2C=CC1C#N (centres undefined)
- T/C [4]: 109 % of control
- T/C (endpoint: median survival time, dose: 200.0 mg/kg/injection, schedule: Q01DX009 (ip), vehicle: saline with Tween-80, higher = longer survival): 114 % of control

SMILES: O=c1n(CC2CO2)c(=O)n(CC2CO2)c(=O)n1CC1CO1 (centres undefined)
- T/C (endpoint: median survival time, dose: 20.0 mg/kg/injection, schedule: Q01DX011 (ip), vehicle: saline, higher = longer survival): 109 % of control
- T/C (endpoint: median survival time, dose: 40.0 mg/kg/injection, schedule: Q01DX011 (ip), vehicle: saline, higher = longer survival): 155 % of control

SMILES: CCOC(=O)c1csc(-c2csc(CCNC(=O)c3ccccc3)n2)n1
- T/C [1]: 95 % of control
- T/C [2]: 102 % of control
- T/C (endpoint: median survival time, dose: 25.0 mg/kg/injection, schedule: Q01DX009 (ip), vehicle: saline with Tween-80, higher = longer survival): 87 % of control
- T/C [3]: 91 % of control
- T/C [4]: 106 % of control
